Source: US20070053984A1, “Topical gels compositions” (priority 2005, published 2007)
Read-outs that look alike come from different tables or passages of the source.

Legend:
[1] = tested on: pseudofolliculitis barbae (PFB); test: 10-week double blind, placebo-controlled, cross-over clinical trial in PFB; type: in vivo, human; details: 15% in 60% alcohol, 1% ULTREZ 10, 24% water; PFB subjects
Description: PFB efficacy is examined by a 10-week double blind, placebo-controlled, cross-over clinical trial. […] Papules, pustules, and ingrown hairs as defined below are counted and recorded. The primary objectives of this study are: • To determine the efficacy of various NSAID compositions applied at various intervals ranging from every other day to twice per day for five weeks in reducing the signs and symptoms of PFB; and • To determine the safety and tolerability of the various NSAID compositions. Papules, pustules, and ingrown hairs as defined below are counted and recorded. Lesions are counted on the neck, lower left and right cheeks, and jaw line (beard area). The same qualified physician completes the assessment at each visit. Each assessment is performed independent of previous assessments. Subjects have a total of at least 10 (for moderate) of 2 (for mild) follicular papules, pustules, or ingrown hairs at the Baseline Visit to be admitted to the study. Inflammatory and/or nodulocystic lesions, erythema, and hyperpigmentation are assessed according to the following six-point Likert (categorical) scale: • 0 None: […] Rare noninflammatory lesions present (lesions must be resolving and may be hyperpigmented, though not pink/red). Barely perceptible elevation (discernable by touch only). • 2 Mild: Noninflammatory lesions predominate, with few inflammatory papules/pustules. Light red color. Visible but mild elevation. No nodulocystic lesions. • 3 Moderate: Some noninflammatory lesions are present with multiple inflammatory lesions evident. Definite lesion redness and elevation. There may or may not be one small nodulocystic lesion. • 4 Severe: Highly inflammatory lesions predominate. Deep intense red color. Marked dermal swelling and in duration in widespread areas. There may or may not be a few nodulocystic lesions. • 5 Very Severe: Many nodulocystic lesions. Results are recorded in the source document and on the appropriate CRF. The same qualified physician will complete the assessment at each visit. Each assessment should be performed independent of previous assessments. Subjects must have a rating of at least moderate (3) at the Baseline Visit to be admitted to the study. All subjects are asked to evaluate specific PFB symptoms of itch, pain, and shaving discomfort, as well as the overall condition of their PFB at the Baseline, and weekly thereafter (“Subject's Assessment of Symptoms”). […] Global Assessment of Improvement. Subjects are asked to compare the overall condition of their PFB at the week 2, 4, and 6 visits with the overall condition before treatment using the following five-point Likert (categorical) scale: • 2 Overall condition and shaving comfort much better than before treatment. • 1 Overall condition and shaving comfort slightly better than before treatment. • 0 Overall condition and shaving comfort unchanged, same as before treatment. • −1 Overall condition and shaving comfort slightly worse than before treatment. • […] than before treatment. Each assessment is performed independent of previous assessments. The prodrug compositions are tested on PFB subjects according to Example 22 including pharmacokinetic analysis.

[2] = tested on: skin of minipigs; details: minipig, in vivo
[3] = tested on: skin of minipigs; test: C14-labeled compositions applied to skin of minipigs, punch biopsies and serum samples; details: 15% in 60% alcohol, 1% ULTREZ 10, 24% water; for Diffusion Rate (1 = high, 5 = low): 0.2 gm per cm^2 skin, biopsies 30 seconds to 24 hours; for Systemic Levels (1 = high, 5 = low): serum samples
[4] = Prodrug (ibuprofen ethyl ester) generation upon storage, HPLC; type: physicochemical; details: compositions similar to 1a, presence or absence of salicylic acid
Method: It has been discovered that, in one embodiment, compositions of the present invention, upon storage, result in the generation of a prodrug form of the active ingredient. Such prodrug formation results from reaction of a carboxylic acid group of the active drug with the alcoholic solvent to form an ester linkage.
HPLC analysis was performed on composition la stored for 3 months at 25° C. A new peak (i.e., the prodrug) distinct from the ibuprofen peak was detected within the chromatographic profile.
Next, two grams of composition 1a were diluted in twenty-five milliliters of 50:50) water:acetonitrile. The solution was centrifuged and the supernatant collected or analysis.
Chromatography was conducted as follows: • Pumps: Hewlett Packard Model 1100 Binary Systems • Solvent A: Water • Solvent B: Acetonitrile • Gradient: Start 40% B • Raise to 60% B at 20 minutes • Raise to 90% B at 40 minutes • Flow Rate: 1.0 ml/min • Stationary Phase ZORBAX® CS (4.6×150 mm) • Column Temperature: 25 C • Injection volume […]
Sequential detection was performed by UV absorbance using an HP diode array detector followed by ESI-MS […] a Sciex QSTAR®/Pulsar quadrupole-TOF mass spectrometer operating in either the positive and negative ion modes.

| Molecule | Efficacy (1 = high, 5 = low) [1] | Diffusion Rate (1 = high, 5 = low) [2] | Systemic Levels (1 = high, 5 = low) [2] | Diffusion Rate (1 = high, 5 = low) [3] | Systemic Levels (1 = high, 5 = low) [3] | effect on rate of prodrug formation [4] |
| --- | --- | --- | --- | --- | --- | --- |
| CCOC(=O)C(C)c1cccc(C(=O)c2ccccc2)c1 (stereo not drawn) [ketoprofen ethylester] | 3 | 3 | 3 | – | – | – |
| CC(C)Cc1ccc(C(C)C(=O)OC(C)C)cc1 (stereo not drawn) [ibuprofen isopropyl ester] | 1 | – | – | 1 | 5 | – |
| O=C(O)c1ccccc1O [salicylic acid] | – | – | – | – | – | increases the rate of prodrug formation |
| CC(C(=O)O)c1cccc(C(=O)c2ccccc2)c1 (stereo not drawn) [ketoprofen, reference compound] | 5 | – | – | – | 2 | – |
| ethylisobutylphenyl-propionate [ibuprofen ethylester] | 2 | – | – | 2 | 4 | – |
| CC(C)OC(=O)C(C)c1cccc(C(=O)c2ccccc2)c1 (stereo not drawn) [ketoprofen isopropyl ester] | 3 | – | – | 3 | 3 | – |
